{"source": "patent US20250333745A1", "about": "“METHODS AND COMPOSITIONS FOR TREATMENT OF POLYCYSTIC KIDNEY DISEASE” (Regulus Therapeutics Inc., priority 2016, published 2025)", "key": {"miR-17 [1]": {"test_system": "miR-17", "assay": "miR-17 luciferase reporter assay in HeLa cells", "assay_type": "cell-based", "conditions": "mean", "experimental": "In vitro potency was evaluated using a luciferase reporter assay. A luciferase reporter plasmid for miR-17, with […] in the 3′-UTR of the luciferase gene. Compounds of longer lengths were selected if their maximum inhibition was greater than that of the tool anti-miR-17 compound. As shorter compounds, such as 9-mers, are typically not maximally active in the same assay conditions used for longer compounds, shorter compounds were selected based on maximum inhibition relative to appropriate control compounds. In this way, compounds that are diverse in both length and chemical composition were included in further testing.\nOne assay employed was the luciferase assay. […] Accordingly, the luciferase assay transfection conditions were optimized for short anti-miR-17 compounds, so that the inhibitory activity of the compounds could be measured.\nThe luciferase reporter plasmid for miR-17 contained a fully complementary miR-17 binding site in the 3′-UTR of the luciferase gene. HeLa cells were transfected with the microRNA mimic and its cognate luciferase reporter, followed by transfection with anti-miR-17 at doses of […], 3, 10, 30, 100, and 300 nM. At the end of the 24-hour transfection period, luciferase activity was measured. As shown in Table 2-1, RG4047, while not as potent as RG4326, inhibited miR-17 activity in a dose dependent manner. SD indicates standard deviation.\nAdditional in vitro assays were conducted to further explore the potency of RG4326. A luciferase reporter assay was used to test the ability of RG4326 to inhibit the miR-17 family members miR-17, miR-20a, miR-93, and miR-106b. A luciferase reporter plasmid for each of miR-20a, miR-93, and miR-106b was constructed, with a fully complementary microRNA binding site in the 3′-UTR of the luciferase gene. HeLa cells were transfected with the microRNA mimic and its cognate luciferase reporter, followed by transfection with anti-miR-17 at a dose of 100 nm. […] As RG4326 is 100% complementary to the other miR-17 family members not tested, miR-20b and […], it is expected to inhibit these microRNAs as well."}, "[2]": {"assay": "Tissue accumulation in kidney and liver (kidney-to-liver ratio)", "assay_type": "in vivo, mouse", "conditions": "single dose 30 mg/kg, seven days", "experimental": "Pharmacokinetic properties and tissue distribution of select compounds were assessed in wild type C57BL6 mice and JCK mice (an experimental model of PKD). Compound was administered to wild type mouse at a dose of 0.3, 3, or 30 mg/kg, or to JCK mice at a dose of 3, 30, or 100 mg/kg. After seven days, mice were sacrificed. Kidney and liver tissues were collected. Concentration of anti-miR-17 compound was measured in liver and kidney. Compounds that accumulate to a greater level in kidney, relative to liver (i.e., have a higher kidney-to-liver ratio) were preferred.\n(§1) The miPSA was used to assess the potency of each compound, measured by the displacement score, in wild type and JCK mice. Tissue accumulation of anti-miR-17 compound was measured by extraction of compound using liquid-liquid extraction (LLE) and/or solid-phase extraction (SPE), followed by analysis of the identity and concentration of compound using ion-pairing-reversed-phase high performance liquid chromatography coupled with time-of-flight mass spectrometry (IP—RP-HPLC-TOF).\n(§2) Wild type mice were administered a single dose of 3 mg/kg for the miPSA analysis, and a single dose of 30 mg/kg for the tissue accumulation analysis. JCK mice were administered a single dose of 30 mg/kg for both the miPSA and tissue accumulation analyses. Kidney tissue was collected seven days following the administration of anti-miR-17 compound. […] A higher kidney-to-liver ratio is generally preferred for a disease where the primary site of action is the kidney."}, "miR-17 [3]": {"test_system": "miR-17", "assay": "microRNA polysome shift assay (miPSA), kidney target engagement", "assay_type": "in vivo, mouse", "set-up": "miPSA Score Wild Type Mice / miPSA Score PKD Mice / miPSA displacement score (mean): scale not given here", "conditions": "kidney, seven days", "experimental": "(§3) In vivo potency was evaluated using the microRNA polysome shift assay (miPSA). This assay was used to determine the extent to which compounds directly engage the miR-17 target in the kidney in normal and PKD mice. The miPSA relies on the principle that active miRNAs bind to their mRNA targets in translationally active high molecular weight (HMW) polysomes, whereas the inhibited miRNAs reside in the low MW (LMW) polysomes. Treatment with anti-miR results in a shift of the microRNA from HMW polysomes to LMW polysomes. Thus, the miPSA provides a direct measurement of microRNA target engagement by a complementary anti-miR (Androsavich et al., Nucleic Acids Research, 2015, 44: e13).\nas §1, §2\nas §3, with “The” for “In vivo potency was evaluated using the”, “(miPSA),” for “(miPSA). This assay”, “identify” for “determine the extent to which”, “compounds that” for “compounds”, “engage” for “engage the”, “miR-17” for “miR-17 target”\nFor this experiment, the PKD model selected was the JCK model, a mouse model of slowly progressing renal cystic disease associated with the same gene that causes human nephronophthisis type 9. Renal cysts in this mouse develop in multiple regions of the nephron.\nC57BL6 mice were treated with a single, subcutaneous dose of 0.3, 3, and 30 mg/kg of RG4326 or tool anti-miR-17 (described in Example 1). JCK mice were treated with a single, subcutaneous dose of 3, 30, and 100 mg/kg of RG4326 or tool anti-miR-17. PBS treatment was used as an additional control. At seven days post-treatment, mice were sacrificed, and kidney tissue was isolated for the miPSA. […] The displacement scores following treatment with RG4326 were greater than the displacement scores following treatment with the tool anti-miR-17 compound. The data for wild-type mice and JCK mice are also shown in FIG. 3A and FIG. 3B, respectively.\nPharmacokinetic behavior was assessed by administering a single subcutaneous 30 mg/kg dose of RG4326 or tool anti-miR-17 compound to wild-type mice. At one hour, four hours, eight hours, one day, seven days, 14 days, 28 days and 56 days following the single injection, mice were sacrificed and the mean concentration of anti-miR compound in kidney and liver tissue was measured (ug/g) as described above. The area-under-curve (AUC) was calculated for kidney and liver tissue using the formula ug*h/g, where ug is the amount of oligonucleotide in the tissue, h is the timepoint of tissue collection in hours, and g is the weight of the tissue. The ratio of kidney AUC to liver AUC was determined. Kidney tissue was also processed to the miPSA, to determine target engagement for each compound in this study. […]"}, "[4]": {"assay": "Safety evaluation of RG4047 (pro-inflammatory signal in kidney and liver)", "experimental": "In in vitro assays, the potential for toxicity was assessed using a biochemical fluorescent binding assay (FBA) and a liver or kidney slice assay. The FBA is performed by incubating a fluorescent dye with each compound, and immediately measuring fluorescence. Highly fluorescent compounds have the potential to produce toxicity in vivo. The liver or kidney slice assay is performed by incubating a slice of tissue from a core liver sample isolated from rat. Following a 24-hour incubation, RNA is extracted from the tissue slice, and the expression levels of 18 pro-inflammatory genes are measured. An induction in pro-inflammatory gene expression indicates a potential for pro-inflammatory effects in vivo.\nAdditional in vivo toxicology assessments were performed by administering to normal mice (Sv129 mice) a single subcutaneous injection of 300 mg/kg of anti-miR-17 compound. After four days, mice were sacrificed, blood was collected for serum chemistry analysis, liver and spleen were weighed, and RNA was isolated from kidney and liver tissues. The expression level of a pro-inflammatory gene, interferon-induced protein with tetratricopeptide repeats (IFIT), was measured.\nRG4047 was evaluated for potency in vivo, safety, and distribution to kidney and liver."}}}
{"sequence": "ASGSCSASCSUSUSUSGS [RG4047]", "values": [{"measurement": "Luciferase Fold Derepression", "setting": "miR-17 [1]; 0.001 nM anti-miR-17, 24-hour transfection", "value": 1}, {"measurement": "Luciferase Fold Derepression", "setting": "miR-17 [1]; 3 nM anti-miR-17, 24-hour transfection", "value": 1.6}, {"measurement": "Luciferase Fold Derepression", "setting": "miR-17 [1]; 10 nM anti-miR-17, 24-hour transfection", "value": 2.2}, {"measurement": "Luciferase Fold Derepression", "setting": "miR-17 [1]; 30 nM anti-miR-17, 24-hour transfection", "value": 3.5}, {"measurement": "Luciferase Fold Derepression", "setting": "miR-17 [1]; 100 nM anti-miR-17, 24-hour transfection", "value": 8.2}, {"measurement": "Luciferase Fold Derepression", "setting": "miR-17 [1]; 300 nM anti-miR-17, 24-hour transfection", "value": 7.5}, {"measurement": "Kidney-to-Liver Ratio PKD Mice", "setting": "[2]; JCK mice", "value": 2.1}, {"measurement": "Kidney-to-Liver Ratio Wild Type Mice", "setting": "[2]; wild type mice", "value": 4.4}, {"measurement": "miPSA Score PKD Mice", "setting": "miR-17 [3]; JCK mice, single dose 30 mg/kg", "value": 1.80}, {"measurement": "miPSA Score Wild Type Mice", "setting": "miR-17 [3]; wild type mice, single dose 3 mg/kg", "value": 1.76}, {"measurement": "pro-inflammatory signal (in words)", "setting": "[4]", "value": "slight pro-inflammatory signal in both kidney and liver"}]}
